From US11807644B2 (PMV Pharmaceuticals, Inc., priority 2020, dated 2023)

target: T1, recombinant His-tag Y220C p53 DBD protein (Homo sapiens, UniProt P04637, Y220C); assay: In vitro DNA binding activity assay (TR-FRET): binding of His-tag Y220C p53 DBD to biotin-labeled consensus DNA; format: biochemical; details: SC150 = concentration to increase DNA binding by […], His-tag Y220C p53 DBD, biotin-labeled consensus DNA
T1 construct: recombinant His-tag Y220C p53 DBD protein (amino acids #˜94-312)

SMILES	Y220C SC150 (μM)
CN1CC[C@@H](Nc2cccc3c2cc(-c2noc(CNC(=O)c4cnn(C5(C)CC5)c4)n2)n3CC(F)(F)F)[C@@H](F)C1 [Compound 448B, N-{[3-(4-{[(3S,4R)-3-fluoro-1-methylpiperidin-4-yl]amino}-1-(2,2,2-trifluoroethyl)-1H-indol-2-yl)-1,2,4-oxadiazol-5-yl]methyl}-1-(1-methylcyclopropyl)-1H-pyrazole-4-carboxamide]	* (* = 0 μM ≤ SC150 < 0.1 μM)
CN1CC[C@@H](Nc2cccc3c2cc(-c2noc(CNC(=O)c4cnc(N5CCOCC5)s4)n2)n3CC(F)(F)F)[C@@H](F)C1 [Compound 453B, N-{[3-(4-{[(3S,4R)-3-fluoro-1-methylpiperidin-4-yl]amino}-1-(2,2,2-trifluoroethyl)-1H-indol-2-yl)-1,2,4-oxadiazol-5-yl]methyl}-2-(morpholin-4-yl)-1,3-thiazole-5-carboxamide]	* (* = 0 μM ≤ SC150 < 0.1 μM)
CN1CC[C@@H](Nc2cccc3c2cc(-c2noc(CNC(=O)c4cnc(N5CCCC5)s4)n2)n3CC(F)(F)F)[C@@H](F)C1 [Compound 459B, N-{[3-(4-{[(3S,4R)-3-fluoro-1-methylpiperidin-4-yl]amino}-1-(2,2,2-trifluoroethyl)-1H-indol-2-yl)-1,2,4-oxadiazol-5-yl]methyl}-2-(pyrrolidin-1-yl)-1,3-thiazole-5-carboxamide]	* (* = 0 μM ≤ SC150 < 0.1 μM)
CN1CC[C@@H](Nc2cccc3c2cc(-c2noc(CNC(=O)c4csc(N5CCCC5)n4)n2)n3CC(F)(F)F)[C@@H](F)C1 [Compound 460B, N-{[3-(4-{[(3S,4R)-3-fluoro-1-methylpiperidin-4-yl]amino}-1-(2,2,2-trifluoroethyl)-1H-indol-2-yl)-1,2,4-oxadiazol-5-yl]methyl}-2-(pyrrolidin-1-yl)-1,3-thiazole-4-carboxamide]	* (* = 0 μM ≤ SC150 < 0.1 μM)
CN1CC[C@@H](Nc2cccc3c2cc(-c2noc(CNC(=O)c4csc(N5CCOCC5)n4)n2)n3CC(F)(F)F)[C@@H](F)C1 [Compound 465B, N-{[3-(4-{[(3S,4R)-3-fluoro-1-methylpiperidin-4-yl]amino}-1-(2,2,2-trifluoroethyl)-1H-indol-2-yl)-1,2,4-oxadiazol-5-yl]methyl}-2-(morpholin-4-yl)-1,3-thiazole-4-carboxamide]	* (* = 0 μM ≤ SC150 < 0.1 μM)
CN1CC[C@@H](Nc2cccc3c2cc(-c2noc(CNC(=O)c4csc(CN5CCCC5)c4)n2)n3CC(F)(F)F)[C@@H](F)C1 [Compound 466B]	* (* = 0 μM ≤ SC150 < 0.1 μM)
COCC1(n2ccc(C(=O)NCc3nc(-c4cc5c(N[C@@H]6CCN(C)C[C@@H]6F)cccc5n4CC(F)(F)F)no3)c2)CCC1 [Compound 471B]	* (* = 0 μM ≤ SC150 < 0.1 μM)
CN1CC[C@@H](Nc2cccc3c2cc(-c2noc(CNC(=O)c4cnc(C5(C)CCOCC5)s4)n2)n3CC(F)(F)F)[C@@H](F)C1 [Compound 473B, N-{[3-(4-{[(3S,4R)-3-fluoro-1-methylpiperidin-4-yl]amino}-1-(2,2,2-trifluoroethyl)-1H-indol-2-yl)-1,2,4-oxadiazol-5-yl]methyl}-2-(4-methyloxan-4-yl)-1,3-thiazole-5-carboxamide]	* (* = 0 μM ≤ SC150 < 0.1 μM)
CN1CC[C@@H](Nc2cccc3c2cc(-c2noc(CNC(=O)c4csc(C5(C)CCOCC5)n4)n2)n3CC(F)(F)F)[C@@H](F)C1 [Compound 474B, N-{[3-(4-{[(3S,4R)-3-fluoro-1-methylpiperidin-4-yl]amino}-1-(2,2,2-trifluoroethyl)-1H-indol-2-yl)-1,2,4-oxadiazol-5-yl]methyl}-2-(4-methyloxan-4-yl)-1,3-thiazole-4-carboxamide]	* (* = 0 μM ≤ SC150 < 0.1 μM)
COCC1(n2ccc(C(=O)NCc3nc(-c4cc5c(N[C@@H]6CCNC[C@@H]6F)cccc5n4CC(F)(F)F)no3)c2)CC1 [Compound 475B, N-{[3-(4-{[(3S,4R)-3-fluoropiperidin-4-yl]amino}-1-(2,2,2-trifluoroethyl)-1H-indol-2-yl)-1,2,4-oxadiazol-5-yl]methyl}-1-[1-(methoxymethyl)cyclopropyl]-1H-pyrrole-3-carboxamide]	* (* = 0 μM ≤ SC150 < 0.1 μM)
COCC1(n2ccc(C(=O)NCc3nc(-c4cc5c(N[C@H]6CCNC[C@H]6F)cccc5n4CC(F)(F)F)no3)c2)CC1 [Compound 476B, N-{[3-(4-{[(3R,4S)-3-fluoropiperidin-4-yl]amino}-1-(2,2,2-trifluoroethyl)-1H-indol-2-yl)-1,2,4-oxadiazol-5-yl]methyl}-1-[1-(methoxymethyl)cyclopropyl]-1H-pyrrole-3-carboxamide]	* (* = 0 μM ≤ SC150 < 0.1 μM)
CC1(n2ccc(C(=O)NCc3nc(-c4cc5c(N[C@@H]6CCNC[C@@H]6F)cccc5n4CC(F)(F)F)no3)c2)CCOCC1 [Compound 477B, N-{[3-(4-{[(3S,4R)-3-fluoropiperidin-4-yl]amino}-1-(2,2,2-trifluoroethyl)-1H-indol-2-yl)-1,2,4-oxadiazol-5-yl]methyl}-1-(4-methyloxan-4-yl)-1H-pyrrole-3-carboxamide]	* (* = 0 μM ≤ SC150 < 0.1 μM)
CC1(n2ccc(C(=O)NCc3nc(-c4cc5c(N[C@H]6CCNC[C@H]6F)cccc5n4CC(F)(F)F)no3)c2)CCOCC1 [Compound 478B, N-{[3-(4-{[(3R,4S)-3-fluoropiperidin-4-yl]amino}-1-(2,2,2-trifluoroethyl)-1H-indol-2-yl)-1,2,4-oxadiazol-5-yl]methyl}-1-(4-methyloxan-4-yl)-1H-pyrrole-3-carboxamide]	* (* = 0 μM ≤ SC150 < 0.1 μM)

Other lines, results leading:

Y220C SC150 (μM)	SMILES
* (* = 0 μM ≤ SC150 < 0.1 μM)	CO[C@H]1C[C@H](n2ccc(C(=O)NCc3nc(-c4cc5c(N[C@@H]6CCN(C)C[C@@H]6F)cccc5n4CC(F)(F)F)no3)c2)C1 [Compound 449B, N-{[3-(4-{[(3S,4R)-3-fluoro-1-methylpiperidin-4-yl]amino}-1-(2,2,2-trifluoroethyl)-1H-indol-2-yl)-1,2,4-oxadiazol-5-yl]methyl}-1-[(1r,3r)-3-methoxycyclobutyl]-1H-pyrrole-3-carboxamide]
* (* = 0 μM ≤ SC150 < 0.1 μM)	CN1CC[C@@H](Nc2cccc3c2cc(-c2noc(CNC(=O)c4ccn(C5CC(F)(F)C5)c4)n2)n3CC(F)(F)F)[C@@H](F)C1 [Compound 451B, 1-(3,3-difluorocyclobutyl)-N-{[3-(4-{[(3S,4R)-3-fluoro-1-methylpiperidin-4-yl]amino}-1-(2,2,2-trifluoroethyl)-1H-indol-2-yl)-1,2,4-oxadiazol-5-yl]methyl}-1H-pyrrole-3-carboxamide]
* (* = 0 μM ≤ SC150 < 0.1 μM)	CN1CC[C@@H](Nc2cccc3c2cc(-c2noc(CNc4nccc5c4cnn5C)n2)n3CC(F)(F)F)[C@@H](F)C1 [Compound 452B, N-[(3S,4R)-3-fluoro-1-methylpiperidin-4-yl]-2-{5-[({1-methyl-1H-pyrazolo[^4,3-c]pyridin-4-yl}amino)methyl]-1,2,4-oxadiazol-3-yl}-1-(2,2,2-trifluoroethyl)-1H-indol-4-amine]
* (* = 0 μM ≤ SC150 < 0.1 μM)	CN1CC[C@@H](Nc2cccc3c2cc(-c2noc(CNc4nccc5c4ccn5C)n2)n3CC(F)(F)F)[C@@H](F)C1 [Compound 454B, N-[(3S,4R)-3-fluoro-1-methylpiperidin-4-yl]-2-{5-[({1-methyl-1H-pyrrolo[3,2-c]pyridin-4-yl}amino)methyl]-1,2,4-oxadiazol-3-yl}-1-(2,2,2-trifluoroethyl)-1H-indol-4-amine]
* (* = 0 μM ≤ SC150 < 0.1 μM)	CN1CC[C@@H](Nc2cccc3c2cc(-c2noc(CNc4nccc5sccc45)n2)n3CC(F)(F)F)[C@@H](F)C1 [Compound 457B, N-[(3S,4R)-3-fluoro-1-methylpiperidin-4-yl]-2-{5-[({thieno[3,2-c]pyridin-4-yl}amino)methyl]-1,2,4-oxadiazol-3-yl}-1-(2,2,2-trifluoroethyl)-1H-indol-4-amine]
* (* = 0 μM ≤ SC150 < 0.1 μM)	COCc1ccc(C(=O)NCc2nc(-c3cc4c(N[C@@H]5CCN(C)C[C@@H]5F)cccc4n3CC(F)(F)F)no2)s1 [Compound 458B, N-{[3-(4-{[(3S,4R)-3-fluoro-1-methylpiperidin-4-yl]amino}-1-(2,2,2-trifluoroethyl)-1H-indol-2-yl)-1,2,4-oxadiazol-5-yl]methyl}-5-(methoxymethyl)thiophene-2-carboxamide]
* (* = 0 μM ≤ SC150 < 0.1 μM)	CN1CC[C@@H](Nc2cccc3c2cc(-c2noc(CNc4cccc5c4ccn5C)n2)n3CC(F)(F)F)[C@@H](F)C1 [Compound 462B, N-[(3S,4R)-3-fluoro-1-methylpiperidin-4-yl]-2-(5-{[(1-methyl-1H-indol-4-yl)amino]methyl}-1,2,4-oxadiazol-3-yl)-1-(2,2,2-trifluoroethyl)-1H-indol-4-amine]
* (* = 0 μM ≤ SC150 < 0.1 μM)	CN1CC[C@@H](Nc2cccc3c2cc(-c2noc(CNc4cccc5c4cnn5C)n2)n3CC(F)(F)F)[C@@H](F)C1 [Compound 463B, N-{[3-(4-{[(3S,4R)-3-fluoro-1-methylpiperidin-4-yl]amino}-1-(2,2,2-trifluoroethyl)-1H-indol-2-yl)-1,2,4-oxadiazol-5-yl]methyl}-1-methyl-1H-indazol-4-amine]
* (* = 0 μM ≤ SC150 < 0.1 μM)	COCc1cc(C(=O)NCc2nc(-c3cc4c(N[C@@H]5CCN(C)C[C@@H]5F)cccc4n3CC(F)(F)F)no2)cs1 [Compound 464B, N-{[3-(4-{[(3S,4R)-3-fluoro-1-methylpiperidin-4-yl]amino}-1-(2,2,2-trifluoroethyl)-1H-indol-2-yl)-1,2,4-oxadiazol-5-yl]methyl}-5-(methoxymethyl)thiophene-3-carboxamide]
* (* = 0 μM ≤ SC150 < 0.1 μM)	CN1CC[C@@H](Nc2cccc3c2cc(-c2noc(CNC(=O)c4ccn(C5(CO)CC5)c4)n2)n3CC(F)(F)F)[C@@H](F)C1 [Compound 472B, N-{[3-(4-{[(3S,4R)-3-fluoro-1-methylpiperidin-4-yl]amino}-1-(2,2,2-trifluoroethyl)-1H-indol-2-yl)-1,2,4-oxadiazol-5-yl]methyl}-1-[1-(hydroxymethyl)cyclopropyl]-1H-pyrrole-3-carboxamide]
